The source of these data is US10752587B2, “Homobispiperidinyl derivatives as liver X receptor beta agonists, compositions and their use” (Merck Sharp & Dohme Corp., priority 2015, dated 2020).

Test [1] concerns the target T1, glutathione-S-transferase (GST) tagged LXRbeta LBD (ligand binding domain) (Homo sapiens, UniProt P55055).
T1 construct: purchased Invitrogen pv4658.pps
T1 sequence (P55055 222-460 limits assumed): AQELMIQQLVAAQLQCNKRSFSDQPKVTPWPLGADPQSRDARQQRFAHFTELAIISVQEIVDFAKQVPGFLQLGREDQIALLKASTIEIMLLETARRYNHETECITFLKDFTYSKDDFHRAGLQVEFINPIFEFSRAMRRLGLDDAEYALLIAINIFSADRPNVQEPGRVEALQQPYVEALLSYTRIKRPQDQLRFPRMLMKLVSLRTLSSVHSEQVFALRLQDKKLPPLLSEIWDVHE
In words: LanthaScreen TR-FRET Liver X Receptor Coactivator Assay, co-activator recruitment to LXRbeta LBD. The conditions noted are these: for Emax: efficacy at max dose, in relation to reference dual agonist T0901317, read-out: LXR beta Activity @ max dose (%); for EC50: potency (Inflection Point, IP), co-activator recruitment to LXRbeta LBD, in relation to T0901317, read-out: LXR beta IP. The format is biochemical. The method, boiled down:
(§1)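 LXRα- or LXRβ-LBD protein was added to test compounds, then fluorescein-labelled coactivator peptide plus Tb-anti-GST antibody; after room-temperature incubation, TR-FRET was read. Inflection point (IP) and Emax were expressed relative to the dual agonist reference T0901317.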
(In general: In TR-FRET formats the signal depends on donor and acceptor labels being close together.)

The target in test [2] is T2, glutathione-S-transferase (GST) tagged LXRalpha LBD (ligand binding domain) (Homo sapiens, UniProt Q13133).
T2 construct: purchased Invitrogen pv4655
T2 sequence (Q13133 209-447 limits assumed): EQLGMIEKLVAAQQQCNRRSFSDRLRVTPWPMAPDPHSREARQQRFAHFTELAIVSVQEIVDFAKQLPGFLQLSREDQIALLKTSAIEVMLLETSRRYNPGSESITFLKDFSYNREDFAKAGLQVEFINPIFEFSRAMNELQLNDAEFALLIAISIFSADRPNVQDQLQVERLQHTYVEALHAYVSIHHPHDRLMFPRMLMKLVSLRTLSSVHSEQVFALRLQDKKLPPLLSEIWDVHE
In words: LanthaScreen TR-FRET Liver X Receptor Coactivator Assay, co-activator recruitment to LXRalpha LBD. Format: biochemical. The note with it: for Emax: efficacy at max dose, in relation to reference dual agonist T0901317, read-out: LXR alpha Activity @ max dose (%); for LXR alpha IP (nM) / EC50: potency (Inflection Point, IP), co-activator recruitment to LXRalpha LBD, in relation to T0901317; for EC50: read-out: LXR alpha IP. The method, boiled down:
as §1

As to `COc1cccc([C@@](O)(C(=O)N2CCC(C)(CC3CCN(c4ccc(C(=O)N(C)C)c(Cl)c4)CC3)CC2)C(F)(F)F)c1` [Example 2-45, 2-chloro-N,N-dimethyl-4-[4-({4-methyl-1-[(2R)-3,3,3-trifluoro-2-hydroxy-2-(3-methoxyphenyl)propanoyl]piperidin-4-yl}methyl)piperidin-1-yl]benzamide], in test [1], the Emax was determined as 18% and the EC50 was found to be 7 nM. For the same compound, in test [2], the Emax amounted to 0% and the “LXR alpha IP (nM)” value is “NO IP”.

With `CN(C)C(=O)c1ccc(N2CCC(OC3CCN(C(=O)[C@](O)(c4cc(Cl)cc(Cl)c4)C(F)(F)F)CC3)CC2)cc1Cl` [Example 2-46, 2-chloro-4-[4-({1-[(2R)-2-(3,5-dichloro-phenyl)-3,3,3-trifluoro-2-hydroxy-propanoyl]piperidin-4-yl}oxy)piperidin-1-yl]-N,N-dimethyl-benzamide], in test [1], the Emax was 102% and the EC50 was found to be 9 nM. Moreover, in test [2], the Emax was found to be 31% and the EC50 came out at 216 nM.

Regarding `CN(C)C(=O)c1ccc(N2CCC(CC3(C)CCN(C(=O)[C@](O)(c4cccc(Cl)c4)C(F)(F)F)CC3)CC2)cc1Cl` [Example 2-47, 2-chloro-4-[4-({1-[(2R)-2-(3-chloro-phenyl)-3,3,3-trifluoro-2-hydroxy-propanoyl]-4-methyl-piperidin-4-yl}methyl)piperidin-1-yl]-N,N-dimethyl-benzamide], in test [1], the Emax was 49% and the EC50 amounted to 4 nM. Further, in test [2], the Emax amounted to 7% and the “LXR alpha IP (nM)” value is “NO IP”.

For the compound `COc1cc(Cl)cc([C@@](O)(C(=O)N2CCC(C)(CC3CCN(c4ccc(C(=O)N(C)C)c(Cl)c4)CC3)CC2)C(F)(F)F)c1` [Example 2-48, 2-chloro-4-[4-({1-[(2R)-2-(3-chloro-5-methoxyphenyl)-3,3,3-trifluoro-2-hydroxy-propanoyl]-4-methyl-piperidin-4-yl}methyl)piperidin-1-yl]-N,N-dimethyl-benzamide], in test [1], the Emax was 30% and the EC50 was found to be 27 nM. Moreover, in test [2], the Emax amounted to 0% and the “LXR alpha IP (nM)” value was “NO IP”.

For `COc1cc(F)cc([C@@](O)(C(=O)N2CCC(C)(CC3CCN(c4ccc(C(=O)N(C)C)c(Cl)c4)CC3)CC2)C(F)(F)F)c1` [Example 2-49, 2-chloro-N,N-dimethyl-4-[4-({4-methyl-1-[(2R)-3,3,3-trifluoro-2-(3-fluoro-5-methoxyphenyl)-2-hydroxy-propanoyl]piperidin-4-yl}methyl)piperidin-1-yl]benzamide], in test [1], the Emax is 59% and the EC50 is 6 nM. In test [2], the Emax was 5% and the “LXR alpha IP (nM)” value is “NO IP”.

For `CCOc1cccc([C@@](O)(C(=O)N2CCC(C)(CC3CCN(c4ccc(C(=O)N(C)C)c(Cl)c4)CC3)CC2)C(F)(F)F)c1` [Example 2-50, 2-chloro-4-[4-({1-[(2R) 2-(3-ethoxy-phenyl)-3,3,3-trifluoro-2-hydroxy-propanoyl]-4-methyl-piperidin-4-yl}methyl)piperidin-1-yl]-N,N-dimethyl-benzamide], in test [1], the Emax came out at 29% and the EC50 worked out at 8 nM. In test [2], the Emax was found to be 0% and the “LXR alpha IP (nM)” value is on record as “NO IP”.

As for `CN(C)C(=O)c1ccc(N2CCC(CC3(C)CCN(C(=O)[C@](O)(c4cccc(OC(F)(F)F)c4)C(F)(F)F)CC3)CC2)cc1Cl` [Example 2-51, 2-chloro-N,N-dimethyl-4-{4-[(4-methyl-1-{(2R)-3,3,3-trifluoro-2-hydroxy-2-[3-(trifluoro-methoxy)phenyl]propanoyl}piperidin-4-yl)methyl]piperidin-1-yl}benzamide], in test [1], the Emax is 57% and the EC50 turned out to be 32 nM. In test [2], the Emax stood at 11% and the “LXR alpha IP (nM)” value is reported as “NO IP”.

`CCc1cccc([C@@](O)(C(=O)N2CCC(C)(CC3CCN(c4ccc(C(=O)N(C)C)c(Cl)c4)CC3)CC2)C(F)(F)F)c1` [Example 2-52, 2-chloro-4-[4-({1-[(2R)-2-(3-ethyl-phenyl)-3,3,3-trifluoro-2-hydroxy-propanoyl]-4-methyl-piperidin-4-yl}methyl)piperidin-1-yl]-N,N-dimethyl-benzamide]: in test [1], the Emax worked out at 20% and the EC50 was found to be 15 nM. In test [2], the Emax amounted to 0% and the “LXR alpha IP (nM)” value was “NO IP”.

`CN(C)C(=O)c1ccc(N2CCC(CC3(C)CCN(C(=O)[C@](O)(c4cc(Cl)cc(Cl)c4)C(F)(F)F)CC3)CC2)cc1Cl` [Example 2-53, 2-chloro-4-[4-({1-[(2R)-2-(3,5-dichloro-phenyl)-3,3,3-trifluoro-2-hydroxy-propanoyl]-4-methylpiperidin-4-yl}methyl)piperidin-1-yl]-N,N-dimethyl-benzamide]: in test [1], the Emax was 50% and the EC50 turned out to be 5 nM. In addition, in test [2], the Emax is 0% and the “LXR alpha IP (nM)” value is “NO IP”.

Take `CN(C)C(=O)c1ccc(N2CCC(CC3(C)CCN(C(=O)[C@](O)(c4cc(F)cc(Cl)c4)C(F)(F)F)CC3)CC2)cc1Cl` [Example 2-54, 2-chloro-4-[4-({1-[(2R)-2-(3-chloro-5-fluorophenyl)-3,3,3-trifluoro-2-hydroxy-propanoyl]-4-methylpiperidin-4-yl}methyl)piperidin-1-yl]-N,N-dimethyl-benzamide]: the Emax worked out at 79% in test [1] and 23% in test [2]. The EC50 worked out at 4 nM in test [1] and 38 nM in test [2].

For `CC(C)Oc1cccc([C@@](O)(C(=O)N2CCC(C)(CC3CCN(c4ccc(C(=O)N(C)C)c(Cl)c4)CC3)CC2)C(F)(F)F)c1` [Example 2-55, 2-chloro-N,N-dimethyl-4-{4-[(4-methyl-1-{(2R)-3,3,3-trifluoro-2-hydroxy-2-[3-(1-methyl-ethoxy)phenyl]propanoyl}piperidin-4-yl)methyl]piperidin-1-yl}benzamide], in test [1], the Emax was determined as 44% and the EC50 turned out to be 8 nM. Also, in test [2], the Emax stood at 0% and the “LXR alpha IP (nM)” value is listed as “NO IP”.

For `CC(C)c1cccc([C@@](O)(C(=O)N2CCC(C)(CC3CCN(c4ccc(C(=O)N(C)C)c(Cl)c4)CC3)CC2)C(F)(F)F)c1` [Example 2-56, 2-chloro-N,N-dimethyl-4-{4-[(4-methyl-1-{(2R)-3,3,3-trifluoro-2-hydroxy-2-[3-(1-methylethyl)phenyl]propanoyl}piperidin-4-yl)methyl]piperidin-1-yl}benzamide], in test [1], the Emax is 37% and the EC50 amounted to 18 nM. Moreover, in test [2], the Emax amounted to 2% and the “LXR alpha IP (nM)” value was “NO IP”.

For the compound `CN(C)C(=O)c1ccc(N2CCC(CC3(C)CCN(C(=O)[C@](O)(c4cccc(F)c4)C(F)(F)F)CC3)CC2)cc1Cl` [Example 2-57, 2-chloro-N,N-dimethyl-4-[4-({4-methyl-1-[(2R)-3,3,3-trifluoro-2-(3-fluorophenyl)-2-hydroxy-propanoyl]piperidin-4-yl}methyl)piperidin-1-yl]benzamide], the Emax was determined as 67% in test [1] and 27% in test [2]. Besides, the EC50 is 5 nM in test [1] and 37 nM in test [2].

On to `CN(C)C(=O)c1ccc(N2CCC(CC3CN(C(=O)[C@](O)(c4ccccc4)C(F)(F)F)C3)CC2)cc1Cl` [Example 2-58, 2-chloro-N,N-dimethyl-4-[4-({1-[(2R)-3,3,3-trifluoro-2-hydroxy-2-phenylpropanoyl]azetidin-3-yl}methyl)piperidin-1-yl]benzamide], for which the Emax was found to be 88% in test [1] and 38% in test [2]. For the same compound, the values for the EC50 in test [1] and in test [2] were 16 nM and 951 nM, respectively.

With `COc1cccc([C@@](O)(C(=O)N2CC(CC3CCN(c4ccc(C(=O)N(C)C)c(Cl)c4)CC3)C2)C(F)(F)F)c1` [Example 2-59, 2-chloro-N,N-dimethyl-4-[4-({1-[(2R)-3,3,3-trifluoro-2-hydroxy-2-(3-methoxyphenyl)propanoyl]azetidin-3-yl}methyl)piperidin-1-yl]benzamide], in test [1], the Emax was found to be 62% and the EC50 came out at 18 nM. Further, in test [2], the Emax was 3% and the “LXR alpha IP (nM)” value is reported as “NO IP”.

For `CC(C)Oc1cccc([C@@](O)(C(=O)N2CC(CC3CCN(c4ccc(C(=O)N(C)C)c(Cl)c4)CC3)C2)C(F)(F)F)c1` [Example 2-60, 2-chloro-N,N-dimethyl-4-{4-[(1-{(2R)-3,3,3-trifluoro-2-hydroxy-2-[3-(1-methyl-ethoxy)phenyl]propanoyl}azetidin-3-yl)methyl]piperidin-1-yl}benzamide], in test [1], the Emax worked out at 66% and the EC50 is 26 nM. In test [2], the Emax came out at 2% and the “LXR alpha IP (nM)” value was “NO IP”.
